Results reported in ChEMBL document CHEMBL4028867, “Design, Synthesis, and Characterization of N-Oxide-Containing Heterocycles with in Vivo Sterilizing Antitubercular Activity” (J Med Chem, 2017).
Converted amounts (≈) assume the structure as drawn.

Legend:
Assay type in all cases: functional
[1] = tested on: Mycobacterium tuberculosis; assay: Antitubercular activity against streptomycin resistant Mycobacterium tuberculosis H37Rv ATCC 35820 after 24 hrs by MABA method; details: H37Rv ATCC 35820, 24 h
[2] = tested on: Mycobacterium tuberculosis; assay: Antitubercular activity against moxifloxacin resistant Mycobacterium tuberculosis H37Rv after 24 hrs by MABA method
[3] = tested on: Mycobacterium tuberculosis; assay: Antitubercular activity against isoniazid resistant Mycobacterium tuberculosis H37Rv ATCC 35822 after 24 hrs by MABA method; details: H37Rv ATCC 35822, 24 h
[4] = tested on: Mycobacterium tuberculosis; assay: Antitubercular activity against rifampicin resistant Mycobacterium tuberculosis H37Rv ATCC 35838 after 24 hrs by MABA method; details: H37Rv ATCC 35838, 24 h
[5] = tested on: Mycobacterium tuberculosis; assay: Antitubercular activity against bedaquiline resistant Mycobacterium tuberculosis H37Rv after 24 hrs by MABA method
[6] = tested on: Mycobacterium tuberculosis; assay: Antitubercular activity against capreomycin resistant Mycobacterium tuberculosis H37Rv after 24 hrs by MABA method

SMILES	MIC90 [1]	MIC90 [2]	MIC90 [3]	MIC90 [4]	MIC90 [5]	MIC90 [6]
O=C(N/N=C/c1ccc2no[n+]([O-])c2c1)c1ccncc1	17 µM (≈ 4.81 µg/mL)	5.72 µM (≈ 1.62 µg/mL)	8.59 µM (≈ 2.43 µg/mL)	3.78 µM (≈ 1.07 µg/mL)	1.2 µM (≈ 0.34 µg/mL)	–
NC(=O)c1c(COc2ccc(/C=N/NC(=O)c3ccncc3)cc2)no[n+]1[O-]	> 262 µM	0.66 µM (≈ 0.252 µg/mL)	> 262 µM	1.99 µM (≈ 0.761 µg/mL)	6.38 µM (≈ 2.44 µg/mL)	> 262 µM
C[C@@H]1NC(=O)[C@@H](N)CNC(=O)[C@H]([C@H]2CCNC(=N)N2)NC(=O)/C(=C/NC(N)=O)NC(=O)[C@H](CNC(=O)C[C@@H](N)CCCN)NC1=O	1.72 µM (≈ 1.12 µg/mL)	–	–	–	–	60.5 µM (≈ 39.5 µg/mL)
NC(=O)c1c(COc2ccccc2/C=N/NC(=O)c2ccncc2)no[n+]1[O-]	27.4 µM (≈ 10.5 µg/mL)	0.81 µM (≈ 0.31 µg/mL)	> 262 µM	0.44 µM (≈ 0.168 µg/mL)	0.81 µM (≈ 0.31 µg/mL)	> 262 µM
NC(=O)c1c(COc2cccc(/C=N/NC(=O)c3ccncc3)c2)no[n+]1[O-]	> 262 µM	1.22 µM (≈ 0.466 µg/mL)	> 262 µM	2.31 µM (≈ 0.883 µg/mL)	2.56 µM (≈ 0.979 µg/mL)	> 262 µM
COc1nc2ccc(Br)cc2cc1[C@@H](c1ccccc1)[C@@](O)(CCN(C)C)c1cccc2ccccc12 [BEDAQUILINE]	0.06 µM (≈ 0.0333 µg/mL)	0.06 µM (≈ 0.0333 µg/mL)	0.01 µM (≈ 0.00556 µg/mL)	0.01 µM (≈ 0.00556 µg/mL)	1.7 µM (≈ 0.944 µg/mL)	0.06 µM (≈ 0.0333 µg/mL)
NNC(=O)c1ccncc1 [ISONIAZID]	> 5 µM	0.28 µM (≈ 0.0384 µg/mL)	> 5 µM	0.35 µM (≈ 0.048 µg/mL)	0.23 µM (≈ 0.0315 µg/mL)	> 5 µM
COc1c(N2C[C@@H]3CCCN[C@@H]3C2)c(F)cc2c(=O)c(C(=O)O)cn(C3CC3)c12 [MOXIFLOXACIN]	0.36 µM (≈ 0.145 µg/mL)	> 8 µM	0.23 µM (≈ 0.0923 µg/mL)	0.12 µM (≈ 0.0482 µg/mL)	0.26 µM (≈ 0.104 µg/mL)	0.35 µM (≈ 0.141 µg/mL)
CO[C@H]1/C=C/O[C@@]2(C)Oc3c(C)c(O)c4c(O)c(c(/C=N/N5CCN(C)CC5)c(O)c4c3C2=O)NC(=O)/C(C)=C\C=C\[C@H](C)[C@H](O)[C@@H](C)[C@@H](O)[C@@H](C)[C@H](OC(C)=O)[C@@H]1C [RIFAMPIN]	0.03 µM (≈ 0.0247 µg/mL)	–	0.01 µM (≈ 0.00823 µg/mL)	> 1 µM	0.04 µM (≈ 0.0329 µg/mL)	0.21 µM (≈ 0.173 µg/mL)
CN[C@@H]1[C@H](O[C@H]2[C@H](O[C@H]3[C@H](O)[C@@H](O)[C@H](N=C(N)N)[C@@H](O)[C@@H]3N=C(N)N)O[C@@H](C)[C@]2(O)C=O)O[C@@H](CO)[C@H](O)[C@H]1O [STREPTOMYCIN]	> 100 µM	–	–	–	–	2.55 µM (≈ 1.48 µg/mL)
